US20240122887A1, “THERAPEUTIC USES OF L-4-CHLOROKYNURENINE” (VISTAGEN THERAPEUTICS, INC., priority 2015, published 2024)

How the values were obtained:
[1] = Phase 1b clinical study, plasma pharmacokinetics after oral L-4-chlorokynurenine (LC-MS/MS); conditions: human plasma
Description: (§1) Subjects were randomized into one of three cohorts (360, 1,080, and 1,440 mg) and received a daily oral dose for 14 consecutive days. […] However, a total of 50 subjects were enrolled in this study. […] Forty-six subjects completed the study per protocol.
(§2) Blood was collected in 6-mL lithium heparin Vacutainer tubes. Samples were centrifuged, and the plasma was separated from the cells and frozen within 30 minutes after centrifugation. Centrifuged samples were placed on ice until they were placed in the freezer. Plasma samples were stored frozen at approximately −20° C. until their shipment to a contractor for analysis.
(§3) Baseline samples (0 minutes) were collected before the drug was administered on Day 1 and on Day 14. Samples were then collected at 0.5, 1, 1.5, 2, 4, 6, 8, 12, and 24 hours after dosing on Day 1 and Day 14.
(§4) Both assays used a plasma sample volume of 50.0 μg/mL.

[2] = cited from earlier work
[3] = target: NMDA receptor glycine B (GlyB) coagonist site (Homo sapiens, UniProt Q05586); conditions: vs naturally occurring kynurenic acid; cited from earlier work
[4] = human, in vivo, po
Description: as §1, §2, §3, §4

dopaminergic neurons = conditions: brains of rats; cited from earlier work
[5] = system: three animal models of peripheral tissue inflammation and nerve injury; assay: Animal models of peripheral tissue inflammation and nerve injury; type: in vivo
[6] = system: capsaicin-induced hyperalgesia; assay: Antihyperalgesic effect on capsaicin-induced hyperalgesia, VAS pain assessment, Phase 1b study; type: in vivo, human
Description: On Day 1 and Day 14 of the clinical study, two intradermal injections of 250 μg of capsaicin were injected sequentially into the volar aspect of alternate forearms to produce burning pain, secondary hyperalgesia, and a flare. The capsaicin USP (United States Pharmacopeia) was prepared according to the site's standard procedure and dissolved in 20% cyclodextrin at a concentration of 10 mg/mL. The first capsaicin injection in one forearm was given 1 hour after oral administration of L-4-chlorokynurenine or placebo, and the second capsaicin injection was given in the other forearm 2 hours after the administration of L-4-chlorokynurenine or placebo. The neurosensory testing began immediately at each capsaicin injection. The serial pain assessments using a 100-mm visual analog scale (VAS) occurred at preinjection and 0, 5, 10, 15, 30, 45, and 60 minutes after each capsaicin injection. The examiner asked the subject to rate the intensity by using the VAS of the spontaneous pain and elicited pain from the application of a 5.18 von Frey hair, 40° C. probe, and gentle stroking with a 1-inch foam brush. The VAS consisted of a 100-mm line with “no pain” written at the 0-mm end and the “worst imaginable pain” written at the 100-mm end. The distance in millimeters provided the pain measurement. […] At least eight determinations of the hyperalgesic area borders were made using the same assessments and starting at different angles. Additionally, subjects were asked to rate the pain intensity of a 1-minute 45° C. heat stimulus (brief thermal stimulation) applied to the anterior thigh at 4.5 hours (±5 minutes) after study drug administration, then every 30 minutes (±5 minutes) through 6 hours after study drug administration. A radiant temperature probe was applied to fix the skin temperature at 36° C. during the pain assessments. Subjects used the VAS for all pain assessments. All study assessment time points were anchored to Time 0, the time of study drug administration. […]

[7] = system: patients with chronic tinnitus; assay: Treatment of tinnitus, TQ / SF-36 / audiometric parameters (Example 5); type: in vivo, human; conditions: daily oral dose escalated 180, 720, 1440 mg/day
Description: One hundred male or female patients between 20-65 years of age with mon- or binaural chronic tinnitus lasting for at least 3-months are enrolled in the study. Patients are randomized into a drug and placebo groups, baseline psychometric and health measurements are taken, followed by blind administration of a daily single oral dose for 14-days of either L-4-chlorokynurenine (initial dose of 180 mg) or placebo. Subsequent psychometric and health measurements are taken at 3-, 7-, and 14-days post (prior to next drug administration) drug administration. At 14, and 28 days the dose of AV-101 is increased to 720 and 1440 mg/day respectively. At 42 and 70 days, all patients are given the panel of psychometric and health measurements. […]
Primary success measures are a statistically significant difference between the mean TQ scores of L-4-chlorokynurenine and placebo groups. […] Student t-test for independent samples or the Mann-Whitney test at each time point are used to assess the statistical significance of the quantitative data. The significance of the qualitative data is assessed with chi-square test or the Fisher exact test. To assess improvement over time and dose, TQ and secondary measurements are evaluated using Friedman Variance Analysis and similar tools for variance analysis.

[8] = system: patients with obsessive-compulsive disorder; assay: Treatment of obsessive-compulsive disorder, OCD-VAS / Y-BOCS; type: in vivo, human; conditions: about 20 to about 2,000 mg/day
Description: Patients with obsessive-compulsive disorder (OCD) are treated with L-4-chlorokynurenine to reduce OCD symptoms. […] The dose of L-4-chlorokynurenine is selected from about 20 mg/day up to about 2,000 mg/day, more preferably about 300 mg/day to about 1,500 mg/day and more preferably about 700 mg/day to about 1,200 mg/day.

[9] = system: patients with a diagnosis of MDD; assay: Treatment of major depressive disorder, HDRS / MADRS (Example 3); type: in vivo, human; conditions: 1,080 or 1,440 mg/day orally for 2 weeks
Description: Twenty-five patients, both male and female, ages 18 to 65, with a diagnosis of MDD are treated with either L-4-chlorokynurenine (1,080 or 1,440 mg/day given orally) for 2 weeks, similar in design to similar studies. [Ibrahim et al. 2012, Zarate et al. 2013, Zarate et al. 2006, Zarate et al. 2005.] […] [Montgomery et al. 1979] Additional indicators of therapeutic efficacy for a given patient could also be the proportion of subjects achieving remission (HDRS≤7) and response (≥50% reduction from baseline in HDRS total score); change from baseline in Hamilton Anxiety Rating Scale (HAM-A) [Hamilton 1959], Columbia Suicide Severity Rating Scale (C-SSRS) total scores [Posner et al. 2011], as well as other measures of mood or psychological states, for example Beck Depression Inventory (BDI) [Beck et al., 1974], the Visual Analogue Scale (VAS) [Aitken 1969], the Brief Psychiatric Rating Scale (BPRS) [Overall et al. 1962], the Clinician Administered Dissociative Scale (CADSS) [Bremner et al. 1998] and the Young Mania Rating Scale (YMRS) [Young et al. 1978].

Compound	Mean 7-chlorokynurenic acid AIC0-t ([1]; Day 1, after 1,440-mg oral dose of L-4-chlorokynurenine) [ng·h/mL]	Mean 7-chlorokynurenic acid AIC0-t ([1]; Day 1, after lowest oral dose (360 mg) of L-4-chlorokynurenine) [ng·h/mL]	Mean 7-chlorokynurenic acid Cmax and AIC0-t on Day 14 compared with Day 1 ([1]; once-daily oral doses of L-4-chlorokynurenine for 14 days)	Crossing of the blood-brain barrier ([2]; in vivo)	Potency and selectivity relative to endogenous KYNA [3]	Mean L-4-chlorokynurenine AIC0-t [4] [ng·h/mL]	Mean L-4-chlorokynurenine Cmax and AIC0-t on Day 14 compared with Day 1 [4]	Mean t1/2 of L-4-chlorokynurenine [4] [h]	Firing rate and burst firing activity of dopaminergic neurons (dopaminergic neurons)	Antihyperalgesic action in animal models [5]	Access to the central nervous system ([2]; after oral or parenteral administration)	Least squares means of the AUPC for allodynia pain, mechanical hyperalgesia pain and heat hyperalgesia pain vs placebo ([6]; 1,080 mg (Cohort 2))	Secondary efficacy endpoints (AUPC spontaneous pain, elicited pain von Frey hair, 40° C. probe), treatment vs placebo ([6]; 120 to 180 min Day 1, 60 to 180 min Days 1 and 14)	Area under the pain time curve (AUPC) for spontaneous pain, treatment vs placebo (primary efficacy endpoint) ([6]; each dose level, 120 to 180 minutes after dosing on Day 14)	Symptoms of tinnitus (TQ, SF-36) [7]	OCD symptoms (OCD-VAS, Y-BOCS) [8]	HDRS and/or MADRS total scores (overall depressive symptomatology) [9]
O=C(O)c1cc(O)c2ccc(Cl)cc2n1 [7-chlorokynurenic acid]	985	156	slightly lower on Day 14	does not cross the blood-brain barrier	about 20 ×												
Nc1cc(Cl)ccc1C(=O)CC(N)C(=O)O [L-4-chlorokynurenine]						196000	slightly lower on Day 14	1.64 to 1.82	increase	potent antihyperalgesic actions	readily gains access to the central nervous system	consistent decrease	no significant changes	no significant change	show improvement	Patients show improvement	significant decrease
